Assay results published in ChEMBL document CHEMBL2346646, “Improving the inhibitory activity of arylidenaminoguanidine compounds at the N-methyl-D-aspartate receptor complex from a recursive computational-experimental structure-activity relationship study” (Bioorg Med Chem, 2013).

Molecular target: Glutamate [NMDA] receptor
Parameters: species or system Homo sapiens

pIC50	SMILES
4.77	COc1ccccc1/C=N/NC(=N)N.Cl
4.54	COc1ccc(/C=N/NC(=N)N)c(OC)c1.Cl
3.74	Cl.N=C(N)N/N=C/c1ccsc1
4.24	Cl.N=C(N)N/N=C/c1cc2ccccc2[nH]1
3.27	Cl.N=C(N)N/N=C/c1ccncc1
4.02	Cl.N=C(N)N/N=C/c1ccc[nH]1
3.96	Cl.N=C(N)N/N=C/c1ccc(-c2ccc([N+](=O)[O-])cc2)o1
5.06	Cl.N=C(N)N/N=C/c1ccc2ccccc2c1
4.57	Cl.N=C(N)N/N=C/c1cccc2ccccc12
4.26	Cl.N=C(N)N/N=C/c1ccc(F)cc1F
4.04	Cl.N=C(N)N/N=C/c1ccc(F)cc1
4.74	Cl.N=C(N)N/N=C/c1cccc(Cl)c1
5.11	COc1ccc(/C=N/NC(=N)N)cc1[N+](=O)[O-].Cl
3.65	Cl.N=C(N)N/N=C/c1cccc(N)c1
5.22	CC(C)c1ccc(/C=N/NC(=N)N)cc1.Cl
4.14	COC(=O)c1cccc(/C=N/NC(=N)N)c1.Cl

The next lines start with the compound.

SMILES	pIC50
Cl.N=C(N)N/N=C/c1ccc([N+](=O)[O-])cc1	4.11
CN(C)c1ccc(/C=N/NC(=N)N)cc1.Cl	5.1
Cl.N=C(N)N/N=C/c1cccc([N+](=O)[O-])c1	3.81
Cl.N=C(N)N/N=C/C=C/c1ccccc1	4.23
Cc1ccc2cc(/C=N/NC(=N)N)[nH]c2c1.Cl	4.48
Cl.Cn1c(/C=N/NC(=N)N)cc2ccccc21	4.31
Cl.N=C(N)N/N=C/c1ccc2[nH]ccc2c1	4.3
Cl.N=C(N)N/N=C/c1cccnc1	3.17
Cc1ccc(/C=N/NC(=N)N)c2ccccc12.Cl	4.94
Cc1ccc2ccccc2c1/C=N/NC(=N)N.Cl	4.58
Cl.N=C(N)N/N=C/c1ccccc1-c1ccccc1	5.07
Cl.N=C(N)N/N=C/c1ccccc1F	4.13
Cl.N=C(N)N/N=C/c1ccc(Cl)cc1Cl	4.99
Cl.N=C(N)N/N=C/c1ccccc1Cl	5.15
COc1ccc(/C=N/NC(=N)N)cc1O.Cl	4.2
Cl.N=C(N)N/N=C/c1ccc(N)cc1	3.96
COc1ccc(/C=N/NC(=N)N)cc1.Cl	4.42
Cl.N=C(N)N/N=C/c1ccc(O)cc1O	3.67
Cl.N=C(N)N/N=C/c1ccccc1C(F)(F)F	4.6
CCCCc1ccc(/C=N/NC(=N)N)cc1.Cl	4.37
CC(C)(C)c1ccc(/C=N/NC(=N)N)cc1.Cl	4.64
Cl.N#Cc1cccc(/C=N/NC(=N)N)c1	4.36
Cl.N#Cc1ccc(/C=N/NC(=N)N)cc1	3.64
COC(=O)c1ccc(/C=N/NC(=N)N)cc1.Cl	4.15
Cl.N=C(N)N/N=C/c1ccccc1	4.14
Cc1ccc(/C=N/NC(=N)N)cc1.Cl	4.09
Cl.N=C(N)N/N=C/c1ccc2c(c1)OCO2	4.41
Cl.Cl.N=C(N)N/N=C/c1ccc(/C=N/NC(=N)N)cc1	4.49
Cl.N=C(N)N/N=C/c1ccc(Cl)cc1	5.44
